Experimental data as given in PubChem BioAssay AID2744 (NMMLSC, 2010).
Active and inactive are the calls of the source.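 Rule for the calls: active = fitted half-maximal concentration for changing reporter fluorescence at or below a set limit; inactive = the rest.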

Target: Citrate synthase, peroxisomal (Saccharomyces cerevisiae (strain ATCC 204508 / S288c)) (UniProt P08679)
Assay: CIT2-GFP expression modulators in yeast, dose response, flow cytometry, MLPCN hits (AID 2744)
Settings: S. cerevisiae CIT2-GFP strain, 3 h; for GFP fluorescence, higher = induction: at 33 µM (top of the series); for EC50: flow cytometry fluorescence

Chain of Citrate synthase, peroxisomal (Saccharomyces cerevisiae (strain ATCC 204508 / S288c)) (P08679 whole entry, looked up): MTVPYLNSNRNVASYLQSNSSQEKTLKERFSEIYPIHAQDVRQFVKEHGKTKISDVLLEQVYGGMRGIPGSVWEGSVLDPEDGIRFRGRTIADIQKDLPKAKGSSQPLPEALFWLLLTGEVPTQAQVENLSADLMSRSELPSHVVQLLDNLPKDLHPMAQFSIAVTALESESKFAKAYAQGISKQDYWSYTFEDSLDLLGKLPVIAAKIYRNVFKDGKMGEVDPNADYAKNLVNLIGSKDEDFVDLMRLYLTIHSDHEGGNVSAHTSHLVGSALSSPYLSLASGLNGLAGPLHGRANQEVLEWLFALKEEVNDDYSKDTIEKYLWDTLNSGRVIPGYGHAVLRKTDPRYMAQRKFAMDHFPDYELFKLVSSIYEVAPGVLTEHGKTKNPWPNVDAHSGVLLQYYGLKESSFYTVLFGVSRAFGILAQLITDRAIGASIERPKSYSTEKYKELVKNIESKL

| SMILES | GFP fluorescence, higher = induction | EC50 [µM] |
| --- | --- | --- |
| CCCCCCCCCCCCCCCC[n+]1cccc2ccccc21 | inactive |  |
| CC[C@]1(c2ccccc2C)ON(c2ccccc2C(F)(F)F)C1=O | inactive |  |
| COc1ccc2c(c1)c(/C=C/c1cc[n+](C)cc1)cn2C | inactive |  |
| COc1cc(CNC(=O)CCCCCCC(C)C)ccc1O | inactive |  |
| COc1ccc([N+](=O)[O-])c(S(=O)(=O)c2ccccc2)n1 | inactive |  |
| O=C(Oc1c(Cl)cc(Cl)c2cccnc12)c1ccco1 | inactive |  |
| CCOC(=O)Cn1cc(/C=C/[N+](=O)[O-])c2ccccc21 | inactive |  |
| O=[N+]([O-])c1c(Nc2ccccn2)cc(Cl)c2nonc12 | inactive |  |
| O=C(C#Cc1cccc([N+](=O)[O-])c1)c1ccccc1 | inactive |  |
| C/C(=N/NC(=O)c1ccc(C(C)(C)C)cc1)c1ccccn1 | inactive |  |
| COc1cc(NC(=O)c2ccccc2[N+](=O)[O-])ccc1NC(=O)c1cc2ccccc2o1 | inactive |  |
| CN1CCN(C(=O)c2cc(COc3c(F)cccc3F)on2)CC1c1ccccc1 (centres undefined) | inactive |  |
| Cc1cc(NC(c2ccc(Cl)cc2)c2ccc3cccnc3c2O)no1 (centres undefined) | inactive |  |
| O=C(/C=C/c1cccc([N+](=O)[O-])c1)c1ccc([N+](=O)[O-])o1 | inactive |  |
| CN(O)/C=c1/ccc2c(n1)C(=O)C=CC=2 | inactive |  |
| CC(=O)N(\C=C/C=C/C=C1\Sc2ccccc2C1=O)c1ccccc1 | inactive |  |
| Cc1ccc(/C=C2/C(=O)ON=C2c2ccccc2)o1 | inactive |  |
| COc1ccc(C2=CC3=C(Br)C(=O)C(C)(O)C(=O)C3=CO2)cc1 (centres undefined) | inactive |  |
| O=C(c1ccccn1)c1conc1C(=O)c1ccc(Br)cc1 | inactive |  |
| Cc1ccc(C2=NOC(=O)/C2=C\c2ccc(C)o2)cc1 | inactive |  |
| C=CCOc1cccc(C(=O)/C=C2/C(=O)Nc3ccccc32)c1 | inactive |  |
| O=[N+]([O-])c1cc(Cl)c2cccnc2c1O | inactive |  |
| Oc1c(CN2CCN(c3ccccc3)CC2)cc(Br)c2cccnc12 | inactive |  |
| Cc1cccc(N=C2NC(=O)/C(=C/C=C/c3ccco3)S2)c1C | inactive |  |

| SMILES | GFP fluorescence, higher = induction | EC50 [µM] |
| --- | --- | --- |
| O=C1C=CC(=O)N1c1cccc(-c2ccccc2)c1 | inactive |  |
| Cc1ccc(S(=O)(=O)c2ncccc2[N+](=O)[O-])cc1 | inactive |  |
| CC(C)(C)c1nnc(N/N=C/c2cc(Br)ccc2O)n(N)c1=O | inactive |  |
| O=C(O)c1cc[c]([Hg][Cl])cc1 | inactive |  |
| O=S(=O)(/N=C(/Sc1ccccc1)c1ccccc1)c1ccccc1 | inactive |  |
| CC(C)[C@@]1(c2ccccc2)ON(c2ccccc2C(F)(F)F)C1=O | inactive |  |
| Oc1c(I)cc(Cl)c2cccnc12 | inactive |  |
| Cc1cc2ccccn2c1C(=O)c1ccc([N+](=O)[O-])o1 | inactive |  |
| O=C(Nc1nnc(-c2ccc(F)cc2)o1)c1cccc([N+](=O)[O-])c1 | inactive |  |
| CCN1/C(=C/C(C)=C/c2sc3ccccc3[n+]2CC)Sc2ccccc21 | inactive |  |
| CCOc1cc(C=C2C(=O)c3ccccc3C2=O)ccc1OCC(=O)Nc1ccc(C)cc1 | inactive |  |
| COc1cccc2sc(Nc3nc(-c4ccccn4)cs3)nc12 | inactive |  |
| CCOC(=O)CSC1=NC(=O)/C(=C/c2ccc(Br)cc2)S1 | inactive |  |
| O=C(O)c1cccc(S(=O)(=O)Nc2ccc(S(=O)(=O)N3CCOCC3)cc2)c1 | inactive |  |
| CCCc1cc(NCc2ccccn2)n2nc(C)c(-c3ccccc3)c2n1 | inactive |  |
| COc1cc(N2C(=O)C=CC2=O)c(OC)cc1Cl | inactive |  |
| Cc1ccccc1[C@]1(C)ON(c2ccccc2C(F)(F)F)C1=O | inactive |  |
| Cc1cccc(C)c1NC(=O)C(Cl)C(=O)c1ccccc1 (centres undefined) | inactive |  |
| C#CCOCCOCCOCCNc1nc(N2CCN(C(=O)CCCCCCCCCCNC(=O)[C@@H](CCC(=O)O)n3cc(CCCCCN)nn3)CC2)nc(N2CCN(C(=O)CCCCCCCCCCNC(=O)[C@H](CCCCN)n3cc(C[C@@H](C)CC)nn3)CC2)n1 | inactive |  |
| COc1ccc(N2C(=O)C(Cl)=C(Nc3c(C)n(C)n(-c4ccccc4)c3=O)C2=O)cc1 | inactive |  |
| CCCc1nnc(NC(=O)c2c(O)c3cccc4c3n(c2=O)CCC4)s1 | inactive |  |
| O=C1Oc2ccccc2C(=O)/C1=C/c1ccccc1O | inactive |  |
| CC(C)C(=O)NC(c1cccs1)c1cc([N+](=O)[O-])c2cccnc2c1O (centres undefined) | inactive |  |
| Cc1cc(C)c(OCC(=O)Nc2nc(-c3ccccn3)cs2)c(C)c1 | inactive |  |

| SMILES | GFP fluorescence, higher = induction | EC50 [µM] |
| --- | --- | --- |
| O=C(NNC(=S)NC(=O)C12CC3CC(CC(C3)C1)C2)c1ccncc1 | inactive |  |
| CC(C)Oc1ccc(C(=O)/C=C2/C(=O)Nc3ccccc32)cc1 | inactive |  |
| Oc1ccc2ccccc2c1N=Nc1nccs1 | inactive |  |
| Cc1ccccc1OCCOC(=O)c1ccc(S(=O)(=O)N2CCCC2)cc1 | inactive |  |
| O=C(NC(=S)NNC(=O)c1ccc(Cl)cc1Cl)c1cccnc1 | inactive |  |
| CCOc1ccc(N2C(=O)C(Cl)=C(Nc3ccccc3O)C2=O)cc1 | inactive |  |
| O=C(NNC(=S)NC(=O)c1ccco1)c1ccc(F)cc1 | inactive |  |
| CC[C@]1(c2ccccc2OC)ON(c2ccccc2C(F)(F)F)C1=O | inactive |  |
| CC(=O)N(C1=C(Cl)C(=O)c2ccccc2C1=O)C1CCCCC1 | inactive |  |
| Cc1ccc(N2C(=O)C(Cl)=C(Nc3c(C)n(C)n(-c4ccccc4)c3=O)C2=O)cc1 | inactive |  |
| O=C(Nc1nnc(-c2ccc3c(c2)CCCC3)o1)c1ccc(Cl)cc1Cl | inactive |  |
| Cc1ccc2nc(/C(C#N)=C/c3ccc(O)c(O)c3)[nH]c2c1 | inactive |  |
| O=C1C(Cl)=C(Nc2ccccc2O)C(=O)N1c1ccccc1 | inactive |  |
| O=C(COc1c(Br)cc(Br)c2cccnc12)N1CCc2ccccc2C1 | inactive |  |
| O=C(Nc1ccccc1)c1nnsc1S(=O)(=O)c1ccc(Cl)cc1 | inactive |  |
| O=C(NCc1ccc2c(c1)OCO2)c1nc(S(=O)(=O)Cc2ccccc2)ncc1Cl | inactive |  |
| COc1ccc(NC2=C(Cl)C(=O)N(CCc3ccccc3)C2=O)c(OC)c1 | inactive |  |
| O=c1oc(/C=C/c2ccc([N+](=O)[O-])s2)nc2ccccc12 | inactive |  |
| CC1=NOC(=O)/C1=C\c1ccc(-c2cc(Cl)ccc2Cl)o1 | inactive |  |
| O=[N+]([O-])c1ccc(S(=O)(=O)c2cccc(C(F)(F)F)c2)nc1 | inactive |  |
| Cc1ccccc1OCC(=O)NNC(=S)NC(=O)c1ccco1 | inactive |  |
| c1ccc(-c2cccc(-c3ccccn3)n2)nc1 | inactive |  |
| CN(C)NC(=S)Nc1ccc(S(=O)(=O)N2CCCCC2)cc1 | inactive |  |
| O=C(Oc1cccc2cccnc12)c1ccc(Br)o1 | inactive |  |

| SMILES | GFP fluorescence, higher = induction | EC50 [µM] |
| --- | --- | --- |
| COc1cc(C=C2C(=O)c3ccccc3C2=O)cc(OC)c1OC | inactive |  |
| CN(C)C(=O)Oc1ccnc2cc(Cl)ccc12 | inactive |  |
| CC(C)(C)C(=O)NC(=S)NNC(=O)c1ccc(-c2ccccc2)cc1 | inactive |  |
| Cc1ccc(/C=C2/SC(=S)N(C3CCCCC3)C2=O)o1 | inactive |  |
| COc1ccccc1-c1nc2s/c(=C\c3cccs3)c(=O)n2n1 | inactive |  |
| C=CCN1C(=O)/C(=C/c2cccs2)C(=O)NC1=S | inactive |  |
| CNc1nc(N)c([N+](=O)[O-])c(Nc2cccc(F)c2)n1 |  | 4.36 |
| CCOc1ccc(N2C(=O)/C(=C\c3cccs3)C(=O)NC2=S)cc1 | inactive |  |
| O=C(Oc1c(Cl)cc(Cl)c2cccnc12)c1cccc([N+](=O)[O-])c1 | inactive |  |
| CCc1ccc(OCC(=O)NNC(=S)NC(=O)C2CC2)c(Br)c1 | inactive |  |
| Cc1ccc(/C=C2\C(=O)NC(=S)N(c3ccc(F)cc3)C2=O)s1 | inactive |  |
| COc1cccc(/C=C/C(=O)c2c(O)cc(C)oc2=O)c1O | inactive |  |
| Cc1c(NC2=C(Cl)C(=O)N(c3ccccc3)C2=O)c(=O)n(-c2ccccc2)n1C | inactive |  |
| COc1ccc(/C=C/C(=O)C2C(=O)C=C(C)OC2=O)cc1O (centres undefined) | inactive |  |
| O=C1NC(=O)N(CCc2ccc(F)cc2)C(=O)/C1=C/c1cccs1 | inactive |  |
| N#Cc1c2ccc([N+](=O)[O-])cc2[n+]([O-])n1-c1ccccc1 | inactive |  |
| CCc1nc2ccccc2c(=O)n1NC(=O)c1c(O)c2ccccc2n(CC)c1=O | inactive |  |
| O=C(NC(=S)NNC(=O)[C@H]1C[C@@H]1c1ccccc1)c1cccc(F)c1 | inactive |  |
| Cc1ccc(/C(N)=N/OC(=O)c2ccc(F)cc2)cc1 |  | 3.81 |
| COc1ccc(C2(C)ON(c3ccccc3C(F)(F)F)C2=O)cc1 (centres undefined) | inactive |  |
| CCc1ccc2c(c1)/C(=C/C(=O)c1cccs1)C(=O)N2 | inactive |  |
| Cc1[nH]n(-c2ccccc2)c(=O)c1C(c1ccccc1[N+](=O)[O-])C(C#N)C#N (centres undefined) | inactive |  |
